The source of these data is article PMC3234597, “Two Panels of Steroid Receptor Luciferase Reporter Cell Lines for Compound Profiling” (Combinatorial Chemistry & High Throughput Screening, 2011).

“Also recorded” adds a separate entry of the source. Structures can show the parent of a compound that is named as a salt. Where two headings read alike, the source gives them in different places.

Holding throughout (format): cell-based
The target in assay [1] is T1, human MR (full-length) (Homo sapiens, UniProt P08235).
T1 construct: expression vectors encoding full-length steroid receptors: pcDNA3-hAR, pcDNA3-hGR and pcDNA3-hMR; expressed in transfected cells; host or cells: U2OS
T1 sequence (P08235 1-984): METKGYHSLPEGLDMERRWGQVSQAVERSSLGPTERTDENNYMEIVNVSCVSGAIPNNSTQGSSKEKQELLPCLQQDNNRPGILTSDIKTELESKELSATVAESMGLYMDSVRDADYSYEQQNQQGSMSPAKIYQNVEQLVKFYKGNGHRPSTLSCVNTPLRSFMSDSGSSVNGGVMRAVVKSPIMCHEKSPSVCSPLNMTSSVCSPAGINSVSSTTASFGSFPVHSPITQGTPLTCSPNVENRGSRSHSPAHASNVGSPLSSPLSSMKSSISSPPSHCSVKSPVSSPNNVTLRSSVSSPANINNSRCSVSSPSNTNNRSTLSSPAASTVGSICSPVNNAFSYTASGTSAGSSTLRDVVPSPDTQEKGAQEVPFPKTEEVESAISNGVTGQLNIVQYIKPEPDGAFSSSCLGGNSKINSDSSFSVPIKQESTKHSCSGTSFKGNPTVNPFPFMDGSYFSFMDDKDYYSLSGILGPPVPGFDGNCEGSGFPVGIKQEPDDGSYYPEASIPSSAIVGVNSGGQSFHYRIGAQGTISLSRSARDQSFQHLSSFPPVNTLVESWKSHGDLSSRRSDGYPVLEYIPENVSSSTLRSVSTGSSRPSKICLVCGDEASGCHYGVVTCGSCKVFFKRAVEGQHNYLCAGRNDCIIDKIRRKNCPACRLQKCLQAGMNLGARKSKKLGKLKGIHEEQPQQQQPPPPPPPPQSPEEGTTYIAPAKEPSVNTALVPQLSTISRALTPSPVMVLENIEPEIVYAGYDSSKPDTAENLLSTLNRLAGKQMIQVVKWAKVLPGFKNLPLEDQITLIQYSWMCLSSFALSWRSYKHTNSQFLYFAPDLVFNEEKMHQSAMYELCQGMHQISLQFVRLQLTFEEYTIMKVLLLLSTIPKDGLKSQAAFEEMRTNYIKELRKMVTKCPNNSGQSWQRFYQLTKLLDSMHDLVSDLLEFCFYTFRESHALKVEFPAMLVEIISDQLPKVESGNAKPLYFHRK
Nature of the assay: U2OS-MR/MMTV luciferase reporter cell line (full-length receptor). Particulars: for activity profile in words: full-length MR format.

In assay [2] the target is T2, human GR (full-length) (Homo sapiens, UniProt P04150).
T2 construct: expression vectors encoding full-length steroid receptors: pcDNA3-hAR and pcDNA3-hGR; host or cells: U2OS
T2 sequence (P04150 1-777): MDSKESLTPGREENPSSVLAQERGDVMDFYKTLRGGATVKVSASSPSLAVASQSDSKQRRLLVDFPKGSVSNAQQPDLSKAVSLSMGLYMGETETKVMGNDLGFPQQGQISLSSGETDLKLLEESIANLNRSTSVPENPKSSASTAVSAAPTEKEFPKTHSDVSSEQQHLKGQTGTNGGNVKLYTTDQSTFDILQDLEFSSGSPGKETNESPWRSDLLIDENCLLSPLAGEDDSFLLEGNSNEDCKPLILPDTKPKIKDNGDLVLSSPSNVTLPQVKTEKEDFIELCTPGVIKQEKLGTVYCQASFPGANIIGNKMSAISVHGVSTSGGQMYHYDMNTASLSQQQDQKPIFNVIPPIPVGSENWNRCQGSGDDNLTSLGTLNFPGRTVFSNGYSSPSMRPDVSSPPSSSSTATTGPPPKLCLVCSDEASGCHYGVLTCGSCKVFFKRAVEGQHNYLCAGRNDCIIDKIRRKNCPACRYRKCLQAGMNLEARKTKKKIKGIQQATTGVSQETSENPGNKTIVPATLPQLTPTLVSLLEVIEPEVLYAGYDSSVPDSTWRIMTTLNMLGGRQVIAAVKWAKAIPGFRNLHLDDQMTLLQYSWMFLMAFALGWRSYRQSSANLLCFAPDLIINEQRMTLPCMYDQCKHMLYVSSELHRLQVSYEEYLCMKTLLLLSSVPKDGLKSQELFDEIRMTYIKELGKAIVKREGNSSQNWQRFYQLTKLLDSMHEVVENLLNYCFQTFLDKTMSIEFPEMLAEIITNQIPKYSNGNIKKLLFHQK
Nature of the assay: U2OS-GR/3xGRE luciferase reporter cell line (full-length receptor). Particulars: for EC50: read-out: Log EC50 (converted). On the technique in general: In a reporter assay the amount or activity of a reporter protein is the signal.

Assay [3] has as its target T2, human GR (full-length). Nature of the assay: U2OS-GR/MMTV luciferase reporter cell line (full-length receptor). Particulars: for EC50: read-out: Log EC50 (converted).
Assay [4] has as its target T3, MR-LBD fused to Gal4-DBD (Homo sapiens, UniProt P08235).
T3 construct: MR-LBD was cloned by RT-PCR from total RNA isolated from HEK293 cells; expressed in transfected cells; host or cells: U2OS
T3 sequence (P08235 726-964 limits assumed): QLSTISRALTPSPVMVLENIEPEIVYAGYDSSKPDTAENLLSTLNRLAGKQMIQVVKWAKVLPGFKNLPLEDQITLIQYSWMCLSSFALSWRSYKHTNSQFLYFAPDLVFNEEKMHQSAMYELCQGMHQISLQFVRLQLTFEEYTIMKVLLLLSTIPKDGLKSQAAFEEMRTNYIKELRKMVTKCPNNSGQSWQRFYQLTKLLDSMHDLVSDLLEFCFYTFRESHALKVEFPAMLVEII
Nature of the assay: U2OS-MR-LBD/9xGal4UAS luciferase reporter cell line. Particulars: for activity profile in words: MR-LBD expressing reporter cell line, agonist and antagonist mode.

The target in assay [5] is T4, GR-LBD fused to Gal4-DBD (Homo sapiens, UniProt P04150).
T4 construct: expressed in transfected cells; host or cells: U2OS
T4 sequence (P04150 524-758 limits assumed): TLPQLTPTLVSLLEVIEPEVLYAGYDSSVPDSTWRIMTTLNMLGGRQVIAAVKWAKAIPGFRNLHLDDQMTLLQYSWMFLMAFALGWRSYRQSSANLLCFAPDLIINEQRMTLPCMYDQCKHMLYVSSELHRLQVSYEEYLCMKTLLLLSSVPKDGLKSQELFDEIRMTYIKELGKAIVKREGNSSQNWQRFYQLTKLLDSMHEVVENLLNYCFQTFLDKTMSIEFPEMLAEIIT
Nature of the assay: U2OS-GR-LBD/9xGal4UAS luciferase reporter cell line. Particulars: for EC50: read-out: Log EC50 (converted).

For assay [6], the target named is T5, human ERβ (full-length) (Homo sapiens, UniProt Q92731).
T5 construct: expression vectors encoding full-length steroid receptors: pcDNA3-hERα and pcDNA3-ERβ; expressed in transfected cells; host or cells: U2OS
Nature of the assay: U2OS-ERβ/3xERE luciferase reporter cell line (full-length receptor). Particulars: for EC50: read-out: Log EC50 (converted).

Assay [7] has as its target T6, ERβ-LBD fused to Gal4-DBD (Homo sapiens, UniProt Q92731).
T6 construct: region comprising ERβ-LBD and a piece of the hinge region; expressed in transfected cells; host or cells: U2OS
Nature of the assay: U2OS-ERβ-LBD/9xGal4UAS luciferase reporter cell line. The note with it: read-out: Log EC50 (converted).

In assay [8] the target is T7, PR-LBD fused to Gal4-DBD (Homo sapiens, UniProt P06401).
T7 construct: PR-LBD region was PCR amplified using the following primer combination; host or cells: U2OS
T7 sequence (P06401 679-913 limits assumed): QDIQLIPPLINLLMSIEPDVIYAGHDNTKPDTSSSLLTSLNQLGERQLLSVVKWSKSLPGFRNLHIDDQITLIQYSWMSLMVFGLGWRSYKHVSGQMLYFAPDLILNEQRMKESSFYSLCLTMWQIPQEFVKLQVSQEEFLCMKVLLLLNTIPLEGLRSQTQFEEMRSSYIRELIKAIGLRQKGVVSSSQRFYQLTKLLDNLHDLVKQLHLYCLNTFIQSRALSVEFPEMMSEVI
Nature of the assay: U2OS-PR-LBD/9xGal4UAS luciferase reporter cell line.

Setting [9] is: antagonist mode, PR-LBD/9xGal4UAS, log10 of molar IC50, mean ± SEM, read-out: Log IC50 (converted).

T5 sequence (Q92731 whole entry): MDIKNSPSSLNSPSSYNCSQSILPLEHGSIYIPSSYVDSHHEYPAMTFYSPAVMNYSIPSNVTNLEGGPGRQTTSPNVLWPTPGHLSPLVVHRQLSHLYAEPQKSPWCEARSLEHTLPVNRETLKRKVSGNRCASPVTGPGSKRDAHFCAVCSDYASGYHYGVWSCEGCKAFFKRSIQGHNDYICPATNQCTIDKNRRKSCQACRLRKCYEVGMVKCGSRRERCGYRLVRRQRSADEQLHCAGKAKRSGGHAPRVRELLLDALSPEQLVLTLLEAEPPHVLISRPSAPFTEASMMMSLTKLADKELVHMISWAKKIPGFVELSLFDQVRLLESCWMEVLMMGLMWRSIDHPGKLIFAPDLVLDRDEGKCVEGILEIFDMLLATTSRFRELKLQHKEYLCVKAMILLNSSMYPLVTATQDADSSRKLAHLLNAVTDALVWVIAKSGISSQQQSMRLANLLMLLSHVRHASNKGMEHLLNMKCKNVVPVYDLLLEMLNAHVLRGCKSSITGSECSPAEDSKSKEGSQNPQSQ
T6 sequence (Q92731 264-498 limits assumed): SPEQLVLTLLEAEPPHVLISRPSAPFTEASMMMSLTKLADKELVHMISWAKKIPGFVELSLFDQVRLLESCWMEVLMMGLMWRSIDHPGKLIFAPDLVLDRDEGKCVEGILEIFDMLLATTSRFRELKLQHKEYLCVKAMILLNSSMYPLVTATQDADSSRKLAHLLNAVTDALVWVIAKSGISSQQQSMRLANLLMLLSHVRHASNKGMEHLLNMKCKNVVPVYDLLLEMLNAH

Consider 4-hydroxy-tamoxifen, for which the “Log EC50” value is listed as above -5.00 M in assay [1] (agonist mode, MR/MMTV, 20 h, log10 of molar EC50, mean ± SEM); above -5.00 M in assay [2] (agonist mode, GR/3xGRE, 20 h, log10 of molar EC50, mean ± SEM); above -5.00 M in assay [3] (agonist mode, GR/MMTV, 20 h, log10 of molar EC50, mean ± SEM); above -5.00 M in assay [4] (agonist mode, MR-LBD/9xGal4UAS, 20 h, log10 of molar EC50, mean ± SEM); above -5.00 M in assay [5] (agonist mode, GR-LBD/9xGal4UAS, 20 h, log10 of molar EC50, mean ± SEM). The “Log IC50” value in assay [1] (antagonist mode, MR/MMTV, in the presence of 1 nM aldosterone, log10 of molar IC50, mean ± SEM) was above -5.00 M; in assay [2] (antagonist mode, GR/3xGRE, in the presence of 5 nM dexamethasone, log10 of molar IC50, mean ± SEM), above -5.00 M; in assay [3] (antagonist mode, GR/MMTV, in the presence of 5 nM dexamethasone, log10 of molar IC50, mean ± SEM) it was above -5.00 M; in assay [4] (antagonist mode, MR-LBD/9xGal4UAS, in the presence of 1 nM aldosterone, log10 of molar IC50, mean ± SEM), above -5.00 M; in assay [5] (antagonist mode, GR-LBD/9xGal4UAS, in the presence of 5 nM dexamethasone, log10 of molar IC50, mean ± SEM), above -5.00 M.

In general, EC50 refers to the concentration needed to bring the measured effect to its halfway point. A word on the IC50: it is the midpoint of a concentration-inhibition curve. Turning to `CC(=O)C1(O)CCC2C3CCC4=CC(=O)CCC4(C)C3CCC21C` (stereo not drawn) [17α-hydroxyprogesterone], the EC50 in assay [6], in assay [7], in assay [2], in assay [8] (read-out: Log EC50 (converted)), in assay [3] and in assay [5] was above 10 µM throughout. In addition, the concentration for half-maximal inhibition (IC50) in assay [8] (setting [9]) is above 10 µM.

As for `C[C@H]1C[C@H]2[C@@H]3CCC4=CC(=O)C=C[C@]4(C)[C@@]3(F)[C@@H](O)C[C@]2(C)[C@@]1(O)C(=O)CO` [Betamethasone, betamethasone], the “activity profile in words” value is “no sign of antagonistic activity” in assay [1] (antagonist mode); “only weakly and partially activated; also recorded: pronounced full antagonist effect” in assay [4]. In addition, the concentration for half-maximal inhibition (IC50) in assay [8] (setting [9]) is above 10 µM. For the same compound, the EC50 in assay [8] (read-out: Log EC50 (converted)) was 4.79 µM.

For the compound `CC(=O)O[C@]1(C(C)=O)CC[C@H]2[C@@H]3C=C(Cl)C4=CC(=O)[C@@H]5C[C@@H]5[C@]4(C)[C@H]3CC[C@@]21C` [Cyproterone acetate, cyproterone acetate], the EC50 in assay [1] (read-out: Log EC50 (converted)), in assay [6], in assay [7] and in assay [4] (read-out: Log EC50 (converted)) was above 10 µM in each case. In assay [6] (ERβ reporter cell lines, even at 10 μM concentration), the “luciferase activity in ERβ reporter cell lines” value is listed as “did not find any sign of luciferase activity”.

For `CC/C(=C(/CC)c1ccc(O)cc1)c1ccc(O)cc1` [DES, Diethylstilbestrol], the half-maximal effective concentration (EC50) in assay [1] (read-out: Log EC50 (converted)) and in assay [4] (read-out: Log EC50 (converted)) was above 10 µM each time.

Turning to `C[C@@H]1C[C@H]2[C@@H]3CCC4=CC(=O)C=C[C@]4(C)[C@@]3(F)[C@@H](O)C[C@]2(C)[C@@]1(O)C(=O)CO` [Dexamethasone, dexamethasone], the “activity profile in words” value in assay [1] (antagonist mode) was “no sign of antagonistic activity”; in assay [4], “only weakly and partially activated; also recorded: pronounced full antagonist effect”. For the same compound, the half-inhibitory concentration (IC50) in assay [8] (setting [9]) was above 10 µM. Further, the EC50 in assay [8] (read-out: Log EC50 (converted)) is 4.79 µM.

Take `C[C@]12CCC(=O)C[C@@H]1CC[C@@H]1[C@@H]2CC[C@]2(C)[C@@H](O)CC[C@@H]12` [Dihydrotestosterone, 5α-androstan-17β-ol-3-one]: the figures for the EC50 in assay [1], in assay [8] and in assay [4] were above 10 µM, 0.398 µM and above 10 µM, respectively. In assay [8], this compound showed a concentration for half-maximal inhibition (IC50) above 10 µM.

As for `CC#C[C@]1(O)CC[C@H]2[C@@H]3CCC4=CC(=O)CCC4=C3[C@@H](c3ccc(N(C)C)cc3)C[C@@]21C` [Mifepristone (RU486), mifepristone], the “activity profile in words” value in assay [2] (full-length GR reporter cell line U2OS-GR/3xGRE) is “partial agonist/full antagonist”; in assay [3] (full-length GR reporter cell line U2OS-GR/MMTV) it was “partial agonist/full antagonist”; in assay [5] (GR LBD format (U2OS-GR-LBD/9xGal4UAS)), “very potent pure full antagonist”.

Consider `CC1(C)NC(=O)N(c2ccc([N+](=O)[O-])c(C(F)(F)F)c2)C1=O` [Nilutamide, nilutamide], for which the EC50 in assay [1] (read-out: Log EC50 (converted)), in assay [6], in assay [7], in assay [8] (read-out: Log EC50 (converted)) and in assay [4] (read-out: Log EC50 (converted)) was above 10 µM throughout. Moreover, the IC50 in assay [8] (setting [9]) was above 10 µM.

In the case of `O=C(c1ccc(OCCN2CCCCC2)cc1)c1c(-c2ccc(O)cc2)sc2cc(O)ccc12` [Raloxifene hydrochloride, raloxifene hydrochloride], the half-maximal effective concentration (EC50) in assay [1] (read-out: Log EC50 (converted)) and in assay [4] (read-out: Log EC50 (converted)) was above 10 µM in each case.

With `CC/C(=C(\c1ccccc1)c1ccc(OCCN(C)C)cc1)c1ccccc1` [Tamoxifen citrate, tamoxifen citrate], the half-maximal effective concentration (EC50) in assay [1] (read-out: Log EC50 (converted)), in assay [2], in assay [3], in assay [4] (read-out: Log EC50 (converted)) and in assay [5] was above 10 µM throughout.
